Reference: patent US11767536B2, “Method for obtaining glyphosate-resistant rice by site-directed nucleotide substitution” (Institute of Genetics and Developmental Biology, Chinese …, priority 2015, dated 2023)

Assays:
[1] = tested on: wild type rice (Oryza sativa L. japonica. cv. Nipponbare) plants; test: Glyphosate resistance verification in N6 culture medium, wild type rice plants; format: in vivo; settings: N6 culture medium containing 1 mg/L glyphosate, recorded after 10 days
Method: (§1) The three TIPS EPSPS site mutation lines (T0-1, T0-5 and T0-7) obtained from Example 4 and wild type rice (Oryza sativa L. japonica. cv. Nipponbare) plants were placed into an N6 culture medium containing 1 mg/L glyphosate, and cultured under the routine culture conditions. The resistance results were recorded after 10 days. Verification was carried out in more than 3 plants for each TIPS EPSPS site mutation line.

[2] = tested on: TIPS EPSPS site mutation lines (T0-1, T0-5 and T0-7); test: Glyphosate resistance verification in N6 culture medium, TIPS EPSPS site mutation lines; format: in vivo, Oryza sativa L. japonica. cv. Nipponbare; settings: N6 culture medium containing 1 mg/L glyphosate, recorded after 10 days, TIPS EPSPS mutant rice T0-1, T0-5, T0-7
Method: as §1

SMILES: O=C(O)CNCP(=O)(O)O [glyphosate]
- resistance results (plant condition) [1]: chlorotic and wilting to die
- resistance results (plant condition) [2]: survived normally
